One test has as its target T1, human opioid receptor-like receptor (ORL-1) (Homo sapiens, UniProt P41146).
T1 construct: host or cells: HEK-293
The test can be described thus: Nociceptin affinity at the ORL1 receptor ([35S]GTPgS binding, membranes from recombinant HEK-293 cells). To be noted: ORL-1 membranes from recombinant HEK-293 cells; GraphPad PRISM curve fitting; read-out: Nociceptin Affinity calc Ki. As for the experimental part:
Nociceptin affinity at the ORL1 receptor for preferred compounds was obtained using the following assay:
Membranes from recombinant HEK-293 cells expressing the human opioid receptor-like receptor (ORL-1) (Receptor Biology) were prepared by lysing cells in ice-cold hypotonic buffer (2.5 mM MgCl2, 50 mM HEPES, pH 7.4) (10 ml/10 cm dish) followed by homogenization with a tissue grinder/teflon pestle. Membranes were collected by centrifugation at 30,000× g for 15 min at 4° C. and pellets resuspended in hypotonic buffer to a final concentration of 1-3 mg/ml. Protein concentrations were determined using the BioRad protein assay reagent with bovine serum albumen as standard. Aliquots of the ORL-1 receptor membranes were stored at −80° C.
Functional SGTPgS binding assays were conducted as follows. ORL-1 membrane solution was prepared by sequentially adding final concentrations of 0.066 mg/ml ORL-1 membrane protein, […], […] and 0.20 nM [^35S]GTPgS to binding buffer (100 mM NaCl, 10 mM MgCl2, 20 mM HEPES, pH 7.4) on ice. The prepared membrane solution ([…]) was transferred to 96-shallow well polypropylene plates containing […] of 20× concentrated stock solutions of agonist prepared in DMSO. Plates were incubated for 30 min at room temperature with shaking. Reactions were terminated by rapid filtration onto 96-well Unifilter GF/B filter plates (Packard) using a 96-well tissue harvester (Brandel) and followed by three filtration washes with […] ice-cold binding buffer (10 mM NaH2PO4, 10 mM Na2HPO4, pH 7.4). Filter plates were subsequently dried at 50° C. for 2-3 hours. […] scintillation cocktail (BetaScint; Wallac) was added and plates were counted in a Packard Top-Count for 1 min/well.
Data was analyzed using the curve fitting functions in GraphPad PRISMÔ, v.
Mu opioid receptor, sequence (P35372 whole entry, species assumed): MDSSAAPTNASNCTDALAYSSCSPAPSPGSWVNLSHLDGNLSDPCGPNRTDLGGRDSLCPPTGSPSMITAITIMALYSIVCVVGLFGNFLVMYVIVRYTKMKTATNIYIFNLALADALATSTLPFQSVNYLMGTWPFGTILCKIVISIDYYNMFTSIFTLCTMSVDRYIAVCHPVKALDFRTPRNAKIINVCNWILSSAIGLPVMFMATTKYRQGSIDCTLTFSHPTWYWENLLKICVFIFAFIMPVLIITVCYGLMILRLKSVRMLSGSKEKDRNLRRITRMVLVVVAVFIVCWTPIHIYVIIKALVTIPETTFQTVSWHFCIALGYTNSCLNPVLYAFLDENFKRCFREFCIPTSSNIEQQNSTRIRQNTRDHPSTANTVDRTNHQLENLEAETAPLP
T1 sequence (P41146 whole entry): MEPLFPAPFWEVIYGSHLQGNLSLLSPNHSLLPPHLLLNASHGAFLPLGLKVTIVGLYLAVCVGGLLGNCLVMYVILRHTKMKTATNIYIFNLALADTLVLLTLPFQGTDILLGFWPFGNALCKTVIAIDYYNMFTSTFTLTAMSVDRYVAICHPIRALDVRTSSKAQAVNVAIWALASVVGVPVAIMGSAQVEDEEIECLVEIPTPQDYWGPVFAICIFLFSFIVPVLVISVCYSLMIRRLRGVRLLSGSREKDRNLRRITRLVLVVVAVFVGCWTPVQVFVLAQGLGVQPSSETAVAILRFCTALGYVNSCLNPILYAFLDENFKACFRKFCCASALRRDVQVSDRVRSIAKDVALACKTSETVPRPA
In general, Ki refers to a measure of affinity in units of concentration, obtained from inhibition or displacement. In the case of `c1ccc2c(c1)CC(N1CCC3(CCc4ccccc43)CC1)C2` [1-(1,3-dihydroinden-2-yl)-spiro[piperidine-4,1′-indane]], the Ki is above 10000 nM. For `C1=CC2(CCN(C3Cc4ccccc4C3)CC2)c2ccccc21` [1-(1,3-dihydroinden-2-yl)-spiro[piperidine-4,1′-indene]], the inhibitory constant (Ki) was 8500 nM. The same measure, in the same setting: to `C1=CC2(CCN(C3CCc4ccccc4C3)CC2)c2ccccc21` (stereo not shown) [1-(2-[1,2,3,4-tetrahydronaphthyl])-spiro[piperidine-4,1′-indene]] belongs 1200 nM. For the compound `c1ccc(CCN2CCC3(CCc4ccccc43)CC2)cc1` [1-(2-phenyl-ethyl)-spiro[piperidine-4,1′-indane]], the Ki was 921 nM. In the case of `C1=CC2(CCN(CCC(c3ccccc3)c3ccccc3)CC2)c2ccccc21` [1-(3,3-Bis(phenyl)propyl)-spiro[piperidine-4,1′-indene]], the Ki was 42 nM. `CC1(C)COC2(CCC(N3CCC4(CCc5ccccc54)CC3)CC2)OC1` [1-(3,3-dimethyl-1,5-dioxaspiro[5.5]undeca-9-yl)-spiro[piperidine-4,1′-indane]]: the inhibition constant (Ki) was above 10000 nM. On to `CC1(C)COC2(CCC(N3CCC4(C=Cc5ccccc54)CC3)CC2)OC1` [1-(3,3-dimethyl-1,5-dioxaspiro[5.5]undeca-9-yl)-spiro[piperidine-4,1′-indene]], for which the Ki is above 10000 nM. On the same count and under the same terms, in the case of `Fc1ccc(C(CCCN2CCC3(CCc4ccccc43)CC2)c2ccc(F)cc2)cc1` [1-(4,4-Bis(p-fluorophenyl)butyl)-spiro[piperidine-4,1′-indane]] it was above 10000 nM; in that of `CC(C)C1CCC(N2CCC3(CCc4ccccc43)CC2)CC1` (stereo not shown) [1-(4-(1-methylethyl)-cyclohexyl)-spiro[piperidine-4,1′-indane]], 500 nM. As for `CCCC1CCC(N2CCC3(CCc4ccccc43)CC2)CC1` (stereo not shown) [1-(4-propyl-cyclohexyl)-spiro[piperidine-4,1′-indane]], the Ki is 2240 nM. For the compound `CC(C)CCC(C)N1CCC2(CCc3ccccc32)CC1` (stereo not shown) [1-(5-methylhex-2-yl)-spiro[piperidine-4,1′-indane]], the Ki was 676 nM. As to `CC(C)CCC(C)N1CCC2(C=Cc3ccccc32)CC1` (stereo not shown) [1-(5-methylhex-2-yl)-spiro[piperidine-4,1′-indene]], the Ki was 355 nM. In the case of `c1ccc2c(c1)CCc1ccccc1C2N1CCC2(CCc3ccccc32)CC1` [1-(10,11-Dihydro-5H-dibenzo[a,d]-cyclohepten-5-yl)-spiro[piperidine-4,1′-indane]], the inhibitory constant (Ki) was above 10000 nM. On to `C1=CC2(CCN(C3c4ccccc4CCc4ccccc43)CC2)c2ccccc21` [1-(10,11-Dihydro-5H-dibenzo[a,d]-cyclohepten-5-yl)-spiro[piperidine-4,1′-indene]], for which the Ki was above 10000 nM. On the same count and under the same terms, in the case of `c1ccc(CN2CCC3(CCc4ccccc43)CC2)cc1` [1-(benzyl)-spiro[piperidine-4,1′-indane]] it was 879 nM. For `c1ccc2c(c1)CCC21CCN(C2CCCCCCC2)CC1` [1-(cyclooctyl)-spiro[piperidine-4,1′-indane]], the inhibition constant Ki was 516 nM. Turning to `C1=CC2(CCN(C3CCCCCCC3)CC2)c2ccccc21` [1-(cyclooctyl)-spiro[piperidine-4,1′-indene]], the Ki was 500 nM.

As to `c1ccc2c(c1)CCC21CCN(CC2CCCCCCC2)CC1` [1-(cyclooctylmethyl)-spiro[piperidine-4,1′-indane]], the Ki was 153 nM. On the same count and under the same terms, in the case of `C1=CC2(CCN(CC3CCCCCCC3)CC2)c2ccccc21` [1-(cyclooctylmethyl)-spiro[piperidine-4,1′-indene]] it was 309 nM. As for `c1ccc2c(c1)CCC21CCN(C2CCC3CCCCC3C2)CC1` (stereo not shown) [1-(decahydro-2-naphthyl)-spiro[piperidine-4,1′-indane]], the Ki is 3140 nM.

With `C1=CC2(CCN(C3CCC4CCCCC4C3)CC2)c2ccccc21` (stereo not shown) [1-(decahydro-2-naphthyl)-spiro[piperidine-4,1′-indene]], the Ki was 1290 nM. Regarding `c1ccc2c(c1)CCC21CCN(Cc2cccc3ccccc23)CC1` [1-(naphth-1-yl-methyl)-spiro[piperidine-4,1′-indane]], the Ki was 146 nM. Consider `O=C1Cc2ccccc2C12CCN(Cc1ccc3ccccc3c1)CC2` [1-(naphth-2-yl-methyl)-spiro[piperidine-4,1′-(2-oxo)-indane]], for which the inhibition constant (Ki) was 83 nM. Regarding `O=C1CC2(CCN(Cc3ccc4ccccc4c3)CC2)c2ccccc21` [1-(naphth-2-yl-methyl)-spiro[piperidine-4,1′-(3-oxo)-indane]], the inhibitory constant (Ki) is 419 nM. As for `c1ccc2cc(CN3CCC4(CCC5CCCCC54)CC3)ccc2c1` (stereo not drawn) [1-(naphth-2-yl-methyl)-spiro[piperidine-4,1′-cis-3a, 4,5,6,7,7a-hexahydroindane]], the inhibition constant Ki was 306 nM. For the compound `c1ccc2c(c1)CCC21CCN(Cc2ccc3ccccc3c2)CC1` [1-(naphth-2-yl-methyl)-spiro[piperidine-4,1′-indane]], the Ki is 35 nM. For the compound `C1=CC2(CCN(Cc3ccc4ccccc4c3)CC2)c2ccccc21` [1-(naphth-2-yl-methyl)-spiro[piperidine-4,1′-indene]], the inhibition constant (Ki) was 36 nM. For `C1=CC2(CCN(C3CC4CCC3C4)CC2)c2ccccc21` (stereo not shown) [1-(norbornan-2-yl)-spiro[piperidine-4,1′-indene]], the Ki is 6470 nM.

For `c1ccc2c(c1)CCC21CCN(C2C3CCC2CC3)CC1` (stereo not shown) [1-(norbornan-7-yl)-spiro[piperidine-4,1′-indane]], the inhibition constant Ki is 913 nM.

As to `c1ccc(COc2ccc(CN3CCC4(CCc5ccccc54)CC3)cc2)cc1` [1-(p-benzyloxybenzyl)-spiro[piperidine-4,1′-indane]], the Ki was 877 nM. Regarding `C1=CC2(CCN(Cc3ccc(OCc4ccccc4)cc3)CC2)c2ccccc21` [1-(p-benzyloxybenzyl)-spiro[piperidine-4,1′-indene]], the inhibition constant Ki is 1560 nM. The same measure, in the same setting: in the case of `N#Cc1ccc(CN2CCC3(CCc4ccccc43)CC2)cc1` [1-(p-cyano-benzyl)-spiro[piperidine-4,1′-indane]] it was 1530 nM; in that of `c1ccc(-c2ccc(CN3CCC4(CCc5ccccc54)CC3)cc2)cc1` [1-(p-phenylbenzyl)-spiro[piperidine-4,1′-indane]], 1210 nM.

As to `CC(C)C1CCC(N2CCC3(C=Cc4ccccc43)CC2)CC1` (stereo not shown) [1-[4-(2-propyl)-cyclohexyl]-spiro[piperidine-4,1′-indene]], the inhibitory constant (Ki) is 292 nM. On to `c1ccc2c(c1)CCC21CCN(C2CC3CCC2C3)CC1` (stereo not shown) [1-[norbornan-2-yl]-spiro[piperidine-4,1′-indane]], for which the Ki was 7210 nM.

Take `C1=CC2(CCN(C3CCCCCCCCC3)CC2)c2ccccc21` [1-cyclodecyl-spiro[piperidine-4,1′-indene]]: the inhibitory constant (Ki) is 427 nM.

Another test deals with Mu opioid receptor (Homo sapiens, UniProt P35372). The test can be described thus: Affinity at the μ receptor ([35S]GTPγS binding, membranes). To be noted: GraphPad PRISM curve fitting, read-out: Mu Receptor Affinity calc Ki. The protocol:
Affinity at the μ receptor for compounds was obtained according to the following assay:
Mu opioid receptor membrane solution was prepared by sequentially adding final concentrations of […] of the desired membrane protein, 10 μg/ml saponin, 3 μM GDP and 0.20 nM [^35S]GTPγS to binding buffer (100 mM NaCl, 10 mM MgCl2, 20 mM HEPES, pH 7.4) on ice. The prepared membrane solution (190 μl/well) was transferred to 96-shallow well polypropylene plates containing 10 μl of 20× concentrated stock solutions of agonist prepared in DMSO. Plates were incubated for 30 min at room temperature with shaking. Reactions were terminated by rapid filtration onto 96-well Unifilter GF/B filter plates (Packard) using a 96-well tissue harvester (Brandel) and followed by three filtration washes with 200 μl ice-cold binding buffer (10 mM NaH2PO4, 10 mM Na2HPO4, pH 7.4). Filter plates were subsequently dried at 50° C. for 2-3 hours. Fifty μl/well scintillation cocktail (MicroScint20, Packard) was added and plates were counted in a Packard Top-Count for 1 min/well.
Data were analyzed using the curve fitting functions in GraphPad PRISM™, v.3.0 and the results for several compounds are set forth in table 2 below: […]
As for `CC(C)C1CCC(N2CCC3(CCc4ccccc43)CC2)CC1` (stereo not shown) [1-(4-(1-methylethyl)-cyclohexyl)-spiro[piperidine-4,1′-indane]], the inhibition constant Ki was 939 nM.

As to `C1=CC2(CCN(C3CCCCCCC3)CC2)c2ccccc21` [1-(cyclooctyl)-spiro[piperidine-4,1′-indene]], the Ki is 2040 nM. Regarding `c1ccc2c(c1)CCC21CCN(Cc2cccc3ccccc23)CC1` [1-(naphth-1-yl-methyl)-spiro[piperidine-4,1′-indane]], the Ki is 1120 nM. Take `c1ccc2c(c1)CCC21CCN(Cc2ccc3ccccc3c2)CC1` [1-(naphth-2-yl-methyl)-spiro[piperidine-4,1′-indane]]: the Ki is 593 nM.

Values taken from US6828440B2, “Spiroindene and spiroindane compounds” (Euro-Celtique, S.A., priority 2001, dated 2004).
